Experimental data as given in patent publication US20260015364A1, “PIPERAZINE BRIDGE-SUBSTITUTED HETEROCYCLIC PYRIMIDINE COMPOUND” (MEDSHINE DISCOVERY INC., priority 2022, published 2026).

Tested on: p-ERK in GP2D cells
Experiment: p-ERK inhibition test of GP2D cells (HTRF)
Type: cell-based
Conditions: Homo sapiens, 1 hour compound incubation
Description: • 1). GP2D cells are seeded in a transparent 96-well cell culture plate, with 80 μL of cell suspension per well and 8000 cells per well, and the cell plate is incubated in a carbon dioxide incubator at 37° C. overnight; • 2). 2 μL of the compound is added to 78 μL of cell culture medium; after mixing well, 20 μL of the compound solution is taken and added to the corresponding cell plate wells, and the cell plate is put back into the carbon dioxide incubator to incubate for another 1 hour; • 3). After the incubation is completed, the cell supernatant is discarded, and 50 μL of 1× cell lysate is added to each well, and incubated at room temperature for 30 minutes with shaking; • 4). Phospho-ERK1/2 Eu Cryptate antibody and Phospho-ERK1/2 d2 antibody are 20-fold diluted using detection buffer; • 5). […] After the incubation is completed, a multimode microplate reader is used to read HTRF excitation: 320 nm, emission: 615 nm, 665 nm; • 7). The IC50 of the test compound is calculated.
• 1). […] After the incubation was completed, a multimode microplate reader was used to read HTRF excitation: 320 nm, emission: 615 nm, 665 nm; • 7) The IC50 of the test compound was calculated.

Structure (SMILES): Nc1cc(F)c(C(F)(F)F)c(-c2ncc3c(N4CC5C=CC(C4)N5)nc(OC[C@@]45CCCN4C[C@H](F)C5)nc3c2F)c1 [Compound 1]
- IC50: 4.75 nM
